{"source": "patent US8768431B2", "about": "“Systems and methods for tissue imaging” (The Regents of the University of Michigan, priority 2007, dated 2014)", "assay_type_in_all_cases": "in vivo, human", "key": {"[1]": {"system": "Prostate-specific antigen", "test": "Serum prostate-specific antigen levels in a metastatic PCa patient", "conditions": "week 0 10.7 ng/ml", "method": "(§1) Patient Information A hormone-naïve person with newly diagnosed metastatic PCa was consented and was enrolled into the study. They were initiated on combined androgen blockade with bicalutamide and goserelin acetate. Magnetic resonance imaging scans were acquired at weeks 0 (baseline), 2, and 8 following treatment initiation which were used to generate the Functional Diffusion Maps at the 2 and 8 week time intervals. Due to pain and pathologic fracture, the patient was also treated with palliative radiation therapy encompassing the sacrum and ilium at 2 weeks post initiation of androgen deprivation therapy.\nClinical Correlates Serum samples were obtained at weeks 0 (baseline), 2, and 8 following treatment initiation. Prostate-specific antigen levels were quantified and expressed in […] of plasma."}, "[2]": {"system": "metastatic PCa osseous lesions", "test": "Tumor volume by T2-weighted MRI in a metastatic PCa patient", "conditions": "for Tumor volume, Ilium: pretreatment 2.34; for Tumor volume, Femoral Head: pretreatment 52.97; for Tumor volume, Sacrum: pretreatment 68.29", "method": "as §1\n(§2) Magnetic Resonance Imaging Magnetic resonance imaging (MRI) examinations including diffusion-weighted and standard anatomic sequences were performed before and 2 weeks after initiation of therapy. MR imaging was performed on a 3-T scanner (Achieva model; Philips Medical Systems, Bothell, Wash.) using a quadrature body coil for transmission and a six-channel cardiac coil for reception. Standard sequences for depiction of anatomy and tumor extent included axial proton density (repetition time [TR]/echo time [TE]=2700/30 msec, two averages) turbo spin-echo and axial T2-weighted turbo spin-echo (TR/TE=7800/60 msec, two averages) with fat suppression through a short inversion time (TI=200 msec). Geometry for these sequences was as follows: field of view, 281 mm right/left by 200 mm anterior/posterior; thirty-eight 4-mm sections with a 1-mm gap; 256—232 acquisition matrix for proton density; and 248 —165 for T2-weighted scans. Diffusion-weighted scans were acquired using fat-suppressed, single-shot, spinecho, echo-planar imaging to reduce motion artifact and parallel imaging (SENSE factor=2) to reduce spatial distortion. Geometry of the diffusion-weighted scans was as follows: 350 mm right/left by 302 mm anterior/posterior; thirty 5-mm sections with a 1-mm gap; 200—172 acquisition matrix; TR/TE=2000/58 msec; and 8 averages for low (b=0 sec/mm2) and 16 averages for high (b=800 sec/mm2) diffusion-sensitivity scans. Apparent diffusion coefficient (ADC) maps were calculated in the routine manner given by the logarithm of the ratio of low-b and high-b images, then scaled by the inverse of b-value difference.\nAt the time of initial diagnosis, the patient underwent Tc-99 m MDP BS to ascertain the extent of skeletal involvement. […] After receiving androgen deprivation therapy for 7 weeks, increased sclerosis was observed by CT (FIG. 9B, arrow). […] Further characterization of the lesions was achieved by MRI. […] Tumor volumes were quantified using ROI analysis of each of the three tumors evaluated using T2-weighted MR images at weeks 0, 2, and 8 post-treatment initiation. […] Overall, tumor volume measurements were unable to detect significant perturbations in tumor size in the 8-week timeframe following treatment initiation."}, "[3]": {"system": "metastatic PCa osseous lesions", "test": "fDM and mean ADC diffusion MRI of osseous lesions in a metastatic PCa patient", "conditions": "for mean ADC, femoral head lesion: baseline 74.5×10^−6; for mean ADC, sacral lesion: baseline 110.8×10^−6; for mean ADC, ilium lesion: baseline 78.0×10^−6", "method": "as §1, §2\nDiffusion Analysis Lesions in MR images acquired at weeks 2 and 8 were coregistered to their corresponding pretreatment MR images using an automatic algorithm based on maximizing mutual information. Registration was accomplished for each individual tumor located in the sacrum, ilium, and femoral head regions after the images were cropped to localize the registration to a limited region-of-interest (ROI) containing a single lesion. Lesions were manually contoured by a radiologist who defined the ROI by inspection of all available image data. Diffusion-average data were generated for weeks 0, 2 and 8 using the ROI contours of each of the three lesions and the mean change in diffusion values were calculated. Computation of fDMs for each lesion at weeks 2 and 8 was accomplished by comparison of voxels within the tumor at weeks 2 and 8 with the pretreatment values (week 0) as previously described (see, e.g., Moffat B A, et al., (2005) Proc Natl Acad Sci USA 102 (15), 5524-5529; Hamstra D A, et al., (2005) Proc Natl Acad Sci USA 102 (46), 16759-16764; each herein incorporated by reference in their entireties) using MIAMI Fuse (University of Michigan, Ann Arbor, Mich.) (see, e.g., Meyer C R, et al., (1997) Med Image Anal 1 (3), 195-206; herein incorporated by reference in its entirety). The tumor was segmented into three different categories wherein the red voxels represent regions within the tumor where ADC values increased (>[…]), the blue voxels represent a decreased ADC (<[…]), and the green regions represent tumor diffusion values that were within these thresholds (e.g., unchanged). […]"}, "[4]": {"conditions": "Week 3 (so in the source), palliative radiation at 2 weeks"}, "[5]": {"conditions": "8 weeks posttreatment, palliative radiation at 2 weeks"}, "[6]": {"conditions": "8 weeks, palliative radiation at 2 weeks"}}, "data": [{"substance": "bicalutamide and goserelin acetate", "values": [{"measurement": "PSA level", "setting": "[1]; week 2 posttreatment", "result": 1.3, "unit": "ng/mL"}, {"measurement": "PSA level", "setting": "[1]; week 8 posttreatment", "result": 0.3, "unit": "ng/mL"}, {"measurement": "Tumor volume, Ilium", "setting": "[2]; Week 2", "result": 2.76, "unit": "cm^3"}, {"measurement": "Tumor volume, Femoral Head", "setting": "[2]; Week 2", "result": 51.52, "unit": "cm^3"}, {"measurement": "Tumor volume, Sacrum", "setting": "[2]; Week 2", "result": 69.46, "unit": "cm^3"}, {"measurement": "Tumor volume, Ilium", "setting": "[2]; [4]", "result": 2.56, "unit": "cm^3"}, {"measurement": "Tumor volume, Femoral Head", "setting": "[2]; Week 3 (so in the source)", "result": 51.35, "unit": "cm^3"}, {"measurement": "Tumor volume, Sacrum", "setting": "[2]; [4]", "result": 72.21, "unit": "cm^3"}, {"measurement": "mean percentage change from baseline of mean ADC, three lesions", "setting": "[3]; 2 weeks", "result": "−0.7±4.7", "unit": "%"}, {"measurement": "decrease of mean ADC with respect to pre-therapy baseline, three lesions", "setting": "[3]; 2 weeks post-therapy (FIG. 12 legend)", "result": "0.7±4.8", "unit": "%"}, {"measurement": "fDM, tumor volume with increased ADC, ilium lesion", "setting": "[3]; 2 weeks posttreatment", "result": 24.5, "unit": "%"}, {"measurement": "fDM, tumor volume with increased ADC, sacral lesion", "setting": "[3]; 2 weeks posttreatment", "result": 26.4, "unit": "%"}, {"measurement": "decrease in mean ADC, sacral lesion", "setting": "[3]; 2 weeks vs baseline", "result": "~10", "unit": "%"}, {"measurement": "mean ADC, femoral head lesion", "setting": "[3]; 2 weeks", "result": "77.8×10^−6 mm^2/sec"}, {"measurement": "mean ADC, sacral lesion", "setting": "[3]; 2 weeks", "result": "99.8×10^−6 mm^2/sec"}, {"measurement": "mean percentage change (increase) from baseline of mean ADC, three lesions", "setting": "[3]; 8 weeks", "result": "8.3±4.3", "unit": "%"}, {"measurement": "fDM, tumor volume with increased ADC, femoral head lesion", "setting": "[3]; 8 weeks posttreatment", "result": 36.4, "unit": "%"}, {"measurement": "fDM, tumor volume with increased ADC, ilium lesion", "setting": "[3]; [5]", "result": 47.1, "unit": "%"}, {"measurement": "fDM, tumor volume with increased ADC, sacral lesion", "setting": "[3]; [5]", "result": 29.0, "unit": "%"}, {"measurement": "increase in mean ADC above baseline, sacral lesion", "setting": "[3]; 8 weeks vs baseline", "result": "~5", "unit": "%"}, {"measurement": "increase in mean ADC, ilium lesion", "setting": "[3]; 8 weeks vs baseline", "result": 16.7, "unit": "%"}, {"measurement": "mean ADC, femoral head lesion", "setting": "[3]; 8 weeks", "result": "76.8×10^−6 mm^2/sec"}, {"measurement": "mean ADC, ilium lesion", "setting": "[3]; [6]", "result": "91.1×10^−6 mm^2/sec"}, {"measurement": "mean ADC, sacral lesion", "setting": "[3]; [6]", "result": "116.2×10^−6 mm^2/sec"}, {"measurement": "average fDM percent of tumor volume with increased diffusion, three lesions", "setting": "[3]; week 2", "result": "24±1.6", "unit": "%"}, {"measurement": "mean ADC, ilium lesion", "setting": "[3]; week 2", "result": "80.7×10^−6 mm^2/sec"}, {"measurement": "fDM, volume with significant increase in ADC, femoral head lesion", "setting": "[3]; week 2 posttreatment", "result": 21.1, "unit": "%"}, {"measurement": "average fDM percent of tumor volume with increased diffusion, three lesions", "setting": "[3]; week 8", "result": "38±5.2", "unit": "%"}]}]}
